# US9867811B2, “Method of treating atherosclerosis in high triglyceride subjects” (NOVARTIS AG, priority 2011, dated 2018)
# Legend:
# [1] = Total cholesterol and triglyceride concentrations in hamster plasma; type: in vivo; settings: for Increase in plasma total cholesterol / Increase in plasma triglycerides: 3 h after administration
# Procedure: (§1) Nine- to ten-week-old, male golden Syrian hamsters were purchased from Japan SLC Inc. (Shizuoka, Japan). Animals underwent a more than 1-week acclimation period under the following conditions: 8:00/20:00 light/dark cycle, room temperature 23±2° C. (range), 55±15% (range) humidity. During this time, animals received filtered (0.5 μm) water and a standard chow diet ad libitum.
# (§2) To induce an acute increase in plasma triglyceride levels, Triton WR-1339 (Cat. No. 35418-12, Nacalai Tesque Inc, Kyoto, Japan) was dissolved in saline (Otsuka Normal Saline, Otsuka Pharmaceuticals, Tokushima, Japan) at a concentration of 2.5 to 10% (w/w), and was intravenously administered at a volume of 2 mL/kg from the basilic vein under isoflurane (FORANE®, Abbott Japan Co. Ltd., Tokyo, Japan) inhalant anesthesia. Whole blood samples were collected using a heparin-washed syringe (Heparin sodium injection “Ajinomoto”; Ajinomoto, Tokyo, Japan) from the abdominal vein by venipuncture under isoflurane (Abbott Japan Co. Ltd.) inhalant anesthesia. After centrifugation at 15,000 rpm for 10 min at 4° C., heparinized plasma was prepared and stored at −80° C. until use.
# Compounds (CETP inhibitors) were suspended in 0.5% methyl cellulose (Methyl cellulose 400 cP, Cat. No. 138-05072, Wako Pure Chemical Industries, Osaka, Japan) solution, which was used as a vehicle. Compound or vehicle (10 mL/kg) was administered once by oral gavage 5 h before administration of Triton WR-1339.
# Cholesterol and triglyceride concentrations in plasma and serum were measured manually with kits (Cholesterol E-test, Cat. No. 439-17501, and Triglyceride E-test, Cat. No. 432-40201, Wako Pure Chemical, Osaka, Japan).
# [2] = test system: CETP; experiment: Ex vivo CETP activity in plasma of hamsters (saline or Triton WR-1339 treated); settings: hamster; for Inhibition of plasma CETP activity: saline group, 8 h after dose; for Extent of CETP inhibition reduced by, relative to the saline group (74% inhibition): 10 mg/kg oral; for Increase in plasma CETP activity: 3 h after administration
# Procedure: as §1, with “(range), 55±15% (range) humidity.” left out
# Whole blood samples were collected using a heparin-washed syringe (Heparin sodium injection “Ajinomoto”; Ajinomoto, Tokyo, Japan) from the abdominal vein by venipuncture under isoflurane (Abbott Japan Co. Ltd.) inhalant anesthesia. After centrifugation at 15,000 rpm for 10 min at 4° C., heparinized plasma was prepared and stored at −80° C. until use.
# CETP activity (RFU/min) was defined as the change in fluorescence intensity from 30 to 90 min.
# The effect of an acute increase of plasma triglycerides in vivo (acute increase in triglyceride-rich particles) on the ability of Torcetrapib to alter plasma CETP activity, triglyceride and total cholesterol levels was investigated. Torcetrapib at doses of 3, 10 or 30 mg/kg or vehicle was administered once by gavage to hamsters fed a standard chow diet.
# Compound or vehicle was administered once by gavage to hamsters fed a standard chow diet.
# [3] = test system: CETP; experiment: Ex vivo plasma CETP activity assay with exogenously added compound (maximum inhibition); type: biochemical; settings: 10 μM, hamster plasma (80% plasma)
# Procedure: Plasma CETP activity ex vivo was determined as followed: 50 μL of hamster plasma (final 80% plasma) was mixed with 10 μL of donor solution diluted with assay buffer composed of 50 mM Tris-HCl (pH7.4) containing 150 mM NaCl and 2 mM EDTA in a 96-well half area black flat bottom plate (Cat. No. 3686, Corning, Corning, N.Y.). Fluorescence intensity was measured every 15 min at an excitation wave length of 485 nm and an emission wavelength of 535 nm for 120 min at 37° C. using ARVO SX+L (PerkinElmer, Wellesley, Mass.). CETP activity (RFU/min) was defined as the change in fluorescence intensity from 30 to 90 min.
# [4] = test system: CETP; experiment: Plasma CETP concentrations (ELISA) in hamsters; type: in vivo; settings: hamster, Triton WR-1339 i.v., any dose
# Procedure: as §2
# Plasma CETP concentrations were measured using an enzyme-linked […] assay (ELISA) kit (Cat No. 278181, Daiichi Pure Chemicals, Tokyo, Japan). Recombinant human CETP protein was used as a standard. Hamster plasma was diluted 250-fold by the dilution buffer in the kit, and then CETP concentration was measured according to the manufacturer's protocol.
# [5] = HPLC lipoprotein analysis in hamster plasma; type: in vivo
# Procedure: as §2
# An HPLC-size exclusion chromatography system with an on-line enzymatic dual detection system for lipids has been used for lipoprotein analysis. Plasma samples were diluted (5-fold) with saline after filtration (0.45 μm, Millipore Co, Cat. No. UFC30HV00) and injected into the HPLC system at a volume of 100 μL (as 20 μL of plasma), every 95 min, using an auto-sampler. Plasma lipoproteins were separated using a single Superose 6 column and filtered phosphate buffered saline (0.45 μm, Millipore Co., Bedford, Mass., Cat. No. SJHVM4710; PBS, Dainippon Pharmaceutical, Osaka, Japan Cat. No. 28-103-05 FN) at a flow rate of 0.5 mL/min. Each enzymatic reagent was pumped at a flow rate of 0.25 mL/min. Both enzymatic reactions proceeded at 37° C. in a reactor coil (Teflon tube, 15 m×0.4 mm id) in the column oven. The color developed after the enzyme reaction was measured at 580 nm, and the electric signal was monitored (every 0.5 second).
# A control pooled EDTA-plasma sample was used to standardize the cholesterol and phospholipid levels in lipoproteins. Cholesterol and phospholipid levels in the control plasma were measured manually with kits (Cholesterol E-test, Cat. No. 439-17501, and Phospholipid C-test, Cat. No. 433-36201, respectively, Wako Pure Chemical Industries), and the concentrations were 121.8 and 216.8 mg/dL, respectively. Concentrations of VLDL, LDL, and HDL-cholesterol and -phospholipid levels were calculated using chromatogram areas observed for control hamster plasma samples. With this methodology, the retention times of control hamster VLDL, LDL, and HDL were 18.5-24.0, 24.0-30.5, and 31.5-42.0 min, respectively.
compound,measurement,setting,value
CCOC(=O)N1c2ccc(C(F)(F)F)cc2[C@@H](N(Cc2cc(C(F)(F)F)cc(C(F)(F)F)c2)C(=O)OC)C[C@H]1CC [Torcetrapib],Effect on plasma triglycerides,[1]; Triton WR-1339 treatment groups,did not affect
same,Effect on plasma triglyceride levels,"[1]; saline group, 3 and 30 mg/kg oral doses","slightly, but significantly, lowered"
same,Effect on total cholesterol levels,[1]; saline or Triton WR-1339 groups,not changed
same,Differences between the saline and WR-1339 groups in the extent of CETP inhibition,[2]; 3 mg/kg oral gavage,5.5%
same,Inhibition of plasma CETP activity,[2]; 3 mg/kg oral gavage,38%
same,Differences between the saline and WR-1339 groups in the extent of CETP inhibition,[2]; 10 mg/kg oral gavage,13%
same,Inhibition of plasma CETP activity,[2]; 10 mg/kg oral gavage,74%
same,"Extent of CETP inhibition reduced by, relative to the saline group (74% inhibition)",[2]; Triton WR-1339 50 mg/kg i.v.,44%
same,"Extent of CETP inhibition reduced by, relative to the saline group (74% inhibition)",[2]; Triton WR-1339 100 mg/kg i.v.,13%
same,Differences between the saline and WR-1339 groups in the extent of CETP inhibition,[2]; 30 mg/kg oral gavage (P<0.01),35%
same,Inhibition of plasma CETP activity,[2]; 30 mg/kg oral gavage,88%
same,"Inhibition of CETP activity, lower dose group, Triton WR-1339 group","[2]; oral gavage: Torcetrapib 5 mg/kg, Anacetrapib 1.5 mg/kg, Example 49 1.5 mg/kg, Example 8 0.75 mg/kg, Triton WR-1339 100 mg/kg i.v., not significant vs vehicle",13%
same,"Inhibition of CETP activity, lower dose group, saline group","[2]; oral gavage: Torcetrapib 5 mg/kg, Anacetrapib 1.5 mg/kg, Example 49 1.5 mg/kg, Example 8 0.75 mg/kg, saline i.v.",60%
same,"Inhibition of CETP activity, higher dose group, Triton WR-1339 group","[2]; oral gavage: Torcetrapib 10 mg/kg, Anacetrapib 3 mg/kg, Example 49 3 mg/kg, Example 8 1.5 mg/kg, Triton WR-1339 100 mg/kg i.v.",8%
same,"Inhibition of CETP activity, higher dose group, saline group","[2]; oral gavage: Torcetrapib 10 mg/kg, Anacetrapib 3 mg/kg, Example 49 3 mg/kg, Example 8 1.5 mg/kg, saline i.v.",75%
same,"Maximum inhibition of CETP activity, compound exogenously added, Triton WR-1339 group",[3]; Triton WR-1339 group,around 75%
same,"Maximum inhibition of CETP activity, compound exogenously added, saline group",[3]; saline group,~100%
Triton WR-1339,Increase in plasma total cholesterol,[1]; Triton WR-1339 50 mg/kg i.v.,1.2 fold
same,Increase in plasma triglycerides,[1]; Triton WR-1339 50 mg/kg i.v.,2.0 fold
same,Increase in plasma total cholesterol,[1]; Triton WR-1339 100 mg/kg i.v.,1.4 fold
same,Increase in plasma triglycerides,[1]; Triton WR-1339 100 mg/kg i.v.,4.0 fold
same,Time of maximum increase in triglyceride levels after administration,"[1]; Triton WR-1339 50, 100 or 200 mg/kg i.v.",8 h
same,Increase in plasma CETP activity,[2]; Triton WR-1339 50 mg/kg i.v.,1.7 fold
same,Increase in plasma CETP activity,[2]; Triton WR-1339 100 mg/kg i.v.,3.7 fold
same,Effect on plasma CETP concentrations,[4],did not significantly affect
same,Effect on HDL-cholesterol,[5]; Triton WR-1339 50 mg/kg i.v.,not changed
same,Effect on HDL-cholesterol,[5]; Triton WR-1339 100 mg/kg i.v.,reduced
same,Effect on LDL-cholesterol,[5]; Triton WR-1339 i.v.,reduced
same,Effect on cholesterol content of VLDL,[5]; Triton WR-1339 i.v. compared to saline group,increased
